Assay results published in patent US7816400B2 (The University of Hong Kong, priority 2007, dated 2010).
Entries after “also recorded” stand apart in the source; their conditions may differ.

Columns and labels:
anesthetized dogs [1] = experiment: In vivo electrophysiology (atrial ERP, QTc) in anesthetized dogs; parameters: species or system dog; conditions: 5 mg/kg intraduodenal, BCL 200 ms, pre-treatment (baseline)
Experimental: Adult mongrel dogs (12-15 kg) were anesthetized with pentobarbital (30 mg/kg i.v.), supplemented during the experiment when needed. The animal was intubated and ventilated with room air. Body temperature was maintained at 37-38° C. with a temperature control system. The left femoral vein was cannulated for maintenance of anesthesia and introducing the mono-phasic action potential (MAP) recording- and pacing-catheters (Boston Scientific Ltd) to the right atrium. The vagus nerves were isolated and divided in the neck. […] A left thoracotomy was performed in the fourth intercostal space, and the pericardium was incised to provide access to the left atrium for introducing the MAP catheter. The catheters were used for recording MAPs of right and left atria, respectively, and for measurement of effective refractory period (ERP). […] A ligation was made at the pylorus with a thick cotton thread to prevent the possible back flow of the duodenum content.
Following a 30-min equilibration period and measurement of atrial excitation threshold with 2-ms duration of stimuli, atrial ERP was determined using a train of 8 basic stimuli (S1, twice-diastolic threshold) followed by an identical premature stimulus (S2). The basic cycle lengths (BCL) of 200, 250 and 300 ms were applied in both right and left atria. S2 was initially delivered late in diastole in 5-ms decrements until a response was not elicited by the S2 indicated on the MAP recording. The ERP was defined as the longest S1-S2 interval failing a propagated response, and the procedure was repeated for three times for each measurement. MAP, ECG and blood pressure signals were continuously monitored and stored on an IBM compatible PC computer using a multiple channels data acquisition system (RM-6280C, Chengdu Instrument Ltd, Chendu, China).
The ERP measurement was then repeated every hour post drug administration for 6 hours. Excitation threshold of both right and left atria was verified before ERP each measurement. • 1.7.2.
The ERPs were determined in anesthetized dogs using the BCLs of 300, 250, and 200 ms by introducing S1-S2 via a programmed cardiac stimulator (FIG. 10A).

hERG channels = hERG channels (Homo sapiens, UniProt Q12809); experiment: cell-based
Chain of hERG channels (Q12809 whole entry): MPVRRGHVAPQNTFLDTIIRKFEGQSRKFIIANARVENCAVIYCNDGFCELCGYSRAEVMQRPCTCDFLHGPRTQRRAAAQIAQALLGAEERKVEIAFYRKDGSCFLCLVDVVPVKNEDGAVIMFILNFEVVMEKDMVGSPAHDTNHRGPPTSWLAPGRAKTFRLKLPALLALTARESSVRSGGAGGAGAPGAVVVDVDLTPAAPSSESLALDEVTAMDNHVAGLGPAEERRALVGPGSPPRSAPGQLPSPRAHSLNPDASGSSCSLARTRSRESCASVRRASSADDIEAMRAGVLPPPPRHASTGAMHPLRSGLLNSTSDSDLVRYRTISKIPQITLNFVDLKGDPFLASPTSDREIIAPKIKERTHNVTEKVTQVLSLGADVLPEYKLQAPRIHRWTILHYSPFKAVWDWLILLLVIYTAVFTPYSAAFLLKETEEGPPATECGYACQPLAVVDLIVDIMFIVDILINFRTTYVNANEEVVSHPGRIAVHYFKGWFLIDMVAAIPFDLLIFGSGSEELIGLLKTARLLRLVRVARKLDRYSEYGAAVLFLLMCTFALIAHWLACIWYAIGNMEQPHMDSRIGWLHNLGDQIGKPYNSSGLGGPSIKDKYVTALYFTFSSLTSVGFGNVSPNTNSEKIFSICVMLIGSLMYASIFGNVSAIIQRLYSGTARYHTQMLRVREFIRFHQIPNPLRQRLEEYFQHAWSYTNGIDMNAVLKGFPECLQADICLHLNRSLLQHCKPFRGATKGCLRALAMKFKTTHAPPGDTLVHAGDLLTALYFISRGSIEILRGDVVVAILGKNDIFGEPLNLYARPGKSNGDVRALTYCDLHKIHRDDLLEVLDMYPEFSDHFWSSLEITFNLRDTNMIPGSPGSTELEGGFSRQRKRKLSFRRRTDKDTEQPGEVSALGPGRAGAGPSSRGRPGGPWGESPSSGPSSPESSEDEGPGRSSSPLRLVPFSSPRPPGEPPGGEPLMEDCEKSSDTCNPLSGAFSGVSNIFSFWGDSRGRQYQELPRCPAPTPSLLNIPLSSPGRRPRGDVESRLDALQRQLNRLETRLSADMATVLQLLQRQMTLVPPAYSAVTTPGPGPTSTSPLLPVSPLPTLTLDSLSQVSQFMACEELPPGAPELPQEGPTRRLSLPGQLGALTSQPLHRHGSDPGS

ICa.L = ICa.L in guinea pig ventricular myocytes; type: cell-based; conditions: 30 and 100 μM
Experimental: (§1) Guinea pigs of either gender (250-300 g) were sacrificed by cervical dislocation after anesthetization with pentobarbital (40 mg kg, i.p.). The procedure related to the use of animals in this invention was approved by the Animal Care and Use Committee for Teaching and Research of University of Hong Kong in accordance with the Guide for the Care and Use of Laboratory Animals (Institute of Laboratory Animal Resources, Commission on Life Sciences, National Research Council, 1996). Left atrial and ventricular myocytes from guinea pig hearts were enzymatically dissociated by the procedure described previously (Li et al., 2002a) and the isolated myocytes were kept in the K^+ storage medium.
The Ca^2+-free cardioplegic solution for specimen transport contained (in mM) 50 KH2PO4, 8 MgSO4, 5 adenosine, 10 HEPES, 140 glucose, 100 mannitol, 10 taurine, pH was adjusted to 7.3 with KOH. Tyrode solution contained (in mM) 140 NaCl, 5.4 KCl, 1 MgCl2, 1 CaCl2, 0.33 NaH2PO4, 10 HEPES, 10 glucose, pH was adjusted to 7.4 with NaOH. […] INa was recorded under conditions of K^+-free and a symmetrical Na^+ (5 mM) in pipette and superfusion solutions as described previously (Li at al., 2002a).
The whole-cell patch-clamp technique was used for electrophysiological recording. […] Membrane currents were recorded in voltage-clamp mode using an EPC-9 amplifier and Pulse software (HEKA, Lambrecht, Germany). […]

Kunmin mice = experiment: Acute toxicity in mice; type: in vivo; conditions: oral, two-week observation
Text: The animals were observed closely with a two-week duration for death number and activity.

[2] = target: IKs channels (hKCNQ1/hKCNE1) (Homo sapiens, UniProt P51787); experiment: IKs in HEK 293 cells stably expressing hKCNQ1/hKCNE1; type: cell-based; conditions: for inhibition of IKs amplitude, in words: 30 μM
Experimental: (§2) The established HEK 293 cell lines stably expressing the hERG channel gene, Kv1.5 (Tang et al., 2007), or recombinant human cardiac KCNQ1/KCNE1 channel current (IKs) (Dong et al., 2006) was maintained separately in Dulbecco's modified eagle medium (Invitrogen) supplemented with 10% fetal bovine serum and containing 400 μg/ml G418 (for hERG or Kv1.5 channels) or 100 μg/ml hygromycin (for IKs).
(§3) The whole-cell patch-clamp technique was used for electrophysiological recording. Borosilicate glass electrodes (1.2-mm OD) were pulled with a Brown-Flamming puller (model P-97, Sutter Instrument Co, Novato, Calif., USA) and had tip resistances of 2-3 MΩ when filled with pipette solution. Membrane currents were recorded in voltage-clamp mode using an EPC-9 amplifier and Pulse software (HEKA, Lambrecht, Germany). A 3-M KCl-agar salt bridge was used as reference electrode. The tip potentials were compensated before the pipette touched the cell. After a giga-ohm seal was obtained, the cell membrane was ruptured by gentle suction to establish the whole-cell configuration. The cell membrane capacitance (pF) was directly measured using the lock-in module of the Pulse software, and used for normalizing the current in individual cells. The series resistance (Rs) was 3-5 MΩ and was compensated by 50-70% to minimize voltage errors. Perforated patch configuration was used for recording action potential in human atrial cells and IKs in HEK 293 cells as described previously (Li et al., 2002b; Dong et al., 2006). Current signals were low-pass filtered at 5 kHz and stored on the hard disk of an IBM compatible computer.

IK.ACh = experiment: Carbachol-evoked IK.ACh in guinea pig atrial myocytes; type: cell-based; conditions: for IK.ACh at +50 mV / IK.ACh at −100 mV: carbachol 5 μM; for IK.ACh at +50 mV: control 147.2; for IK.ACh at −100 mV: control −338.3±61.5; for block of carbachol-evoked IK.ACh, in words: 3 and 10 μM
Experimental: as §1, §3

IK1 = IK1 in guinea pig ventricular myocytes; type: cell-based; conditions: 30 and 100 μM
Experimental: as §1
The whole-cell patch-clamp technique was used for electrophysiological recording. Borosilicate glass electrodes (1.2-mm OD) were pulled with a Brown-Flamming puller (model P-97, Sutter Instrument Co, Novato, Calif., USA) and had tip resistances of 2-3 MΩ when filled with pipette solution. Membrane currents were recorded in voltage-clamp mode using an EPC-9 amplifier and Pulse software (HEKA, Lambrecht, Germany). A 3-M KCl-agar salt bridge was used as reference electrode. The tip potentials were compensated before the pipette touched the cell. […] The cell membrane capacitance (pF) was directly measured using the lock-in module of the Pulse software, and used for normalizing the current in individual cells. […]

Kv1.5 = target: T1, Kv1.5 (Homo sapiens, UniProt P22460); experiment: Kv1.5 channel block in stably expressing HEK 293 cells; type: cell-based; conditions: HEK 293 cells stably expressing Kv1.5, Table 3; read-out: Kv1.5 (IC50)
T1 construct: expressed in transfected cells
T1 sequence (P22460 whole entry): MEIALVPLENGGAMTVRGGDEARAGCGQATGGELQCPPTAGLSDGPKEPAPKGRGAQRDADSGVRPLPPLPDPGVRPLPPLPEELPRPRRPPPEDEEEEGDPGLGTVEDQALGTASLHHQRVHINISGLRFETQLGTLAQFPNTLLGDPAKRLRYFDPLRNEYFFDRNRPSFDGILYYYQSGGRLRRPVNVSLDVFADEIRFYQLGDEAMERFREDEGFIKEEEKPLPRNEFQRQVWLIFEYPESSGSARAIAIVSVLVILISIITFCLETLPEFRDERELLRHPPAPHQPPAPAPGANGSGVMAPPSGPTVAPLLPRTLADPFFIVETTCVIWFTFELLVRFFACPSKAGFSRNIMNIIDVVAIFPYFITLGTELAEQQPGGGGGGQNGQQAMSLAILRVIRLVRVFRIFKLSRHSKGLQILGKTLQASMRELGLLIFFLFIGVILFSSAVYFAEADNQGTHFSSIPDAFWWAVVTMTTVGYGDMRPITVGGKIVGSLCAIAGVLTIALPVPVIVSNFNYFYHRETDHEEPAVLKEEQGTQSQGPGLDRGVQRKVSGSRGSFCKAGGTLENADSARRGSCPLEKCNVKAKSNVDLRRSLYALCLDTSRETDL
Experimental: as §2, §3
Other derivatives/analogs studied have no effect or a week inhibitory effect on Kv1.5.

anesthetized dogs [3] = experiment: Experimental vagotonic AF in anesthetized dogs; type: in vivo, dog; conditions: for summarized anti-AF efficacy: vehicle 0%; for animals in which sustained AF was not observed: vehicle: sustained AF in 100%; for prevention of AF induction, in words: 5 and 10 mg/kg intraduodenal, P<0.05 vs vehicle
Experimental: Sustained vagotonic AF was generated in anesthetized dogs by introducing two MAP catheters respectively into the right atrium and the left ventricle along with stimulation of the divided bilateral vagal nerves in the neck. […] Ventricular pacing was performed with 2 ms voltage pulses (2.5 Hz, 150% diastolic threshold) when vagal nerves were continuously stimulated. AF was generated by the BCL 100-ms S1 followed by S2, lasting for 10 min. […] The sustained AF could be repeatedly generated and terminated by stopping vagal stimulation. AF incidence and AF duration were recorded before and at different time points (0.5, 1, 1.5, 2, 3, and 4h) after intraduodenal administration of drugs.
AF was induced by S1-S2 stimulation at 100 ms BCL with bilateral vagal stimulation (see Methods & FIG. 12) at certain time points during the 0.5 to 4 h period following intraduodenal administration. AF lasted for 10 min and terminated once vagal stimulation was stopped. No AF occurrence or shortened AF duration during the continuous vagal stimulation were considered to represent prevention of AF.

**Q.** Which “right atrial ERP (ms), BCL 200 ms” value (anesthetized dogs [1]) does the source give for `COc1ccc(-c2cc(=O)c3c(O)cc(O)cc3o2)cc1` [Acacetin, 5,7-dihydroxy-4′-methoxyflavone] here?
**A.** 87.2 ± 7.9 ms

**Q.** What about the IC50 (hERG channels) of the same compound?
**A.** 32.4 µM

**Q.** And the “effect on ICa.L, in words” value (ICa.L)?
**A.** no effect; also recorded: no inhibition

**Q.** And the “effect on ICa.L, in words” value (ICa.L; listed as acacetin)?
**A.** no effects

**Q.** What about the “abnormal activity compared to vehicle-control animals” value (Kunmin mice; 0.3 g/kg three times) of the same compound?
**A.** no abnormal activity

**Q.** What about the animal death (Kunmin mice; 900 mg/kg (0.3 g/kg three times at intervals of 1.5 h), 900 mg/kg) of the same compound?
**A.** no animal death

**Q.** What about the “inhibition of IKs amplitude, in words” value [2] of the same compound?
**A.** significantly inhibited

**Q.** And the “inhibition of IKs amplitude, in words” value ([2]; listed as acacetin)?
**A.** inhibited

**Q.** And the IC50 ([2]; HEK 293 cells, IKs.step, +40 mV, read-out: IC50 for inhibiting IKs)?
**A.** 81.4 µM

**Q.** And the “IK.ACh at +50 mV” value (IK.ACh; 3 μM, n=5)?
**A.** 87.8±36.1 pA

**Q.** What about the “IK.ACh at −100 mV” value (IK.ACh; 3 μM, n=5) of the same compound?
**A.** −180.2±36.7 pA

**Q.** And the “IK.ACh at +50 mV” value (IK.ACh; 10 μM, n=6)?
**A.** 55.7±26.2 pA

**Q.** And the “IK.ACh at −100 mV” value (IK.ACh; 10 μM, n=6)?
**A.** −75.6±21.1 pA

**Q.** What about the “block of carbachol-evoked IK.ACh, in words” value (IK.ACh) of the same compound?
**A.** substantially blocked

**Q.** And the “block of carbachol-evoked IK.ACh, in words” value (IK.ACh; listed as acacetin)?
**A.** substantially inhibits

**Q.** What about the “effect on IK1, in words” value (IK1) of the same compound?
**A.** no effect; also recorded: no inhibition

**Q.** What about the “effect on IK1, in words” value (IK1; listed as acacetin) of the same compound?
**A.** no effects

**Q.** What about the IC50 (Kv1.5) of the same compound?
**A.** 3.4 µM

**Q.** And the “summarized anti-AF efficacy” value (anesthetized dogs [3]; 2.5 mg/kg intraduodenal)?
**A.** 50%

**Q.** What about the “animals in which sustained AF was not observed” value (anesthetized dogs [3]; 2.5 mg/kg intraduodenal) of the same compound?
**A.** 50%

**Q.** What about the “summarized anti-AF efficacy” value (anesthetized dogs [3]; 5 mg/kg intraduodenal) of the same compound?
**A.** 85.7%

**Q.** And the “animals in which sustained AF was not observed” value (anesthetized dogs [3]; 5 mg/kg intraduodenal)?
**A.** 57%

**Q.** What about the “summarized anti-AF efficacy” value (anesthetized dogs [3]; 10 mg/kg intraduodenal) of the same compound?
**A.** 85.7%

**Q.** What about the “animals in which sustained AF was not observed” value (anesthetized dogs [3]; 10 mg/kg intraduodenal) of the same compound?
**A.** 57%

**Q.** What about the “prevention of AF induction, in words” value (anesthetized dogs [3]) of the same compound?
**A.** significantly prevented AF

**Q.** And the “prevention of AF induction, in words” value (anesthetized dogs [3]; listed as acacetin)?
**A.** significantly prevented AF induction

**Q.** What about the “incidence of AF, in words” value (anesthetized dogs [3]; acacetin 2.5, 5, 10 mg/kg, sotalol 5 mg/kg, 1.5-2.5 h after intraduodenal administration) of the same compound?
**A.** reduced the incidence of AF
